# Laboratory results as given in US11976083B2, “Inhibitors of peptidylarginine deiminases” (Gilead Sciences, Inc., priority 2020, dated 2024).
# Target: T1, human PAD4 (Homo sapiens, UniProt Q9UM07)
# T1 construct: human PAD4 (NM_012387), A2-P663, was PCR amplified; His-SUMO (N, cleaved yes); made in house; host or cells: E. coli BL21(DE3)
# Assay: In vitro PAD4 BAEE biochemical assay
# Details: BAEE substrate 3 mM, 5 nM PAD4, 2 mM calcium chloride; geometric mean of multiple experiments
# Summary of the method: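 Assay was run at 25 °C using 3 mM BAEE and 5 nM human PAD4 after a 30 min compound preincubation; ammonia produced over 2 h was quantified by OPA-derived fluorescence. Full inhibition was defined by 50 µM BB-Cl-Amidine, and IC50 came from variable-slope nonlinear regression.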
# T1 sequence (Q9UM07 2-663): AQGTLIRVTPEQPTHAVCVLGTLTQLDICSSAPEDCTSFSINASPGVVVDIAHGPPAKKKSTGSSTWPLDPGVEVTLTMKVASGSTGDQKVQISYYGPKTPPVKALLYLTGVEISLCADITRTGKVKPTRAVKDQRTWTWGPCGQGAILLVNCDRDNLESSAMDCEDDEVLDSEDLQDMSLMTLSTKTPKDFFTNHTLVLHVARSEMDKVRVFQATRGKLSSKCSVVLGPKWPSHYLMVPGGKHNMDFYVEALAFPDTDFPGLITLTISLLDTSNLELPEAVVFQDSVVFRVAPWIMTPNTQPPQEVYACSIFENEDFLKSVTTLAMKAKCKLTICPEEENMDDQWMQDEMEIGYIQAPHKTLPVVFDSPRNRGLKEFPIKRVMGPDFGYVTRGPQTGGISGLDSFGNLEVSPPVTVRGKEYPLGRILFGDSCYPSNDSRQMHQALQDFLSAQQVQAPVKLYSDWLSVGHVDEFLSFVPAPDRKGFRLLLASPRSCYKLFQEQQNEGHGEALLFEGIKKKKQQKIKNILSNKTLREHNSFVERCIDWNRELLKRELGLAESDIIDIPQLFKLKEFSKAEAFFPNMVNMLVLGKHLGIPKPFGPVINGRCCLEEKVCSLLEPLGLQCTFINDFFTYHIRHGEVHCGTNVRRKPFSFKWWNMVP
row,Compound,IC50 [nM]
1,"CO[C@@H]1CCN(C(=O)c2cc(F)c3c(c2)nc(-c2cc4ccc5nc4n2CCCCCCC(c2ccccn2)C(=O)N[C@@H]5C)n3C2CC2)C[C@@H]1N (stereo partly shown) [Example 871, (11~{R})-17-[5-[(3~{S), 4~{R})-3-amino-4-methoxy-piperidine-1-carbonyl]-1-cyclopropyl-7-fluoro-benzimidazol-2-yl]-11-methyl-8-(2-pyridyl)-1,10,19-triazatricyclo[10.5.2.0^{15,18}] nonadeca-12(19), 13,15(18),16-tetraen-9-one]",31
2,"CO[C@@H]1CCN(C(=O)c2cc(F)c3c(c2)nc(-c2cc4ccc5nc4n2CCCCCC[C@H](c2cccc(Cl)n2)C(=O)N[C@@H]5C)n3C2CC2)C[C@@H]1N [Example 872, (8~{R},11~{R})-17-[5-[(3~ {S},4~{R})-3-amino-4-methoxy-piperidine-1-carbonyl]-1-cyclopropyl-7-fluoro-benzimidazol-2-yl]-8-(6-chloro-2-pyridyl)-11-methyl-1,10,19-triazatricyclo[10.5.2.0^ {15,18}]nonadeca-12(19), 13,15(18),16-tetraen-9-one]",90
3,"CO[C@@H]1CCN(C(=O)c2cc(F)c3c(c2)nc(-c2cc4ccc5nc4n2CCCCCC[C@@H](c2cccc(Cl)n2)C(=O)N[C@@H]5C)n3C2CC2)C[C@@H]1N [Example 873, (8~{S},11~{R})-17-[5-[(3~{S}, 4~{R})-3-amino-4-methoxy-piperidine-1-carbonyl]-1-cyclopropyl-7-fluoro-benzimidazol-2-yl]-8-(6-chloro-2-pyridyl)-11-methyl-1,10,19-triazatricyclo[10.5.2.0^{15,18}] nonadeca-12(19), 13,15(18),16-tetraen-9-one]",120
4,"[2H]C1([2H])CCCC[C@@H]2C[C@H]2C(=O)N[C@H](C)c2ccc3cc(-c4nc5cc(C(=O)N6CC[C@@H](OC)[C@@H](N)C6)cc(F)c5n4C4CC4)n1c3n2 [Example 874, (2~{R},5~{R},7~{R})-14-[5-[(3~{S},4~{R})-3-amino-4-methoxy-piperidine-1-carbonyl]-1-cyclopropyl-7-fluoro-benzimidazol-2-yl]-12,12-dideuterio-2-methyl-3,13,19-triazatetracyclo[11.5.2.0^ {5,7}.0^{16,20}]icosa-1(19), 14,16(20),17-tetraen-4-one]",29
5,"CO[C@@H]1CCN(C(=O)c2cc(F)c3c(c2)nc(-c2cc4ccc5nc4n2CCCCCC[C@@](F)(c2cccc(Cl)n2)C(=O)N[C@@H]5C)n3C2CC2)C[C@@H]1N [Example 875, (8~{R},11~{R})-17-[5-[(3~{S), 4~{R})-3-amino-4-methoxy-piperidine-1-carbonyl]-1-cyclopropyl-7-fluoro-benzimidazol-2-yl]-8-(6-chloro-2-pyridyl)-8-fluoro-11-methyl-1,10,19-triazatricyclo[10.5.2.0^{15,18}] nonadeca-12(19), 13,15(18),16-tetraen-9-one]",148
6,"CO[C@@H]1CCN(C(=O)c2cc(F)c3c(c2)nc(-c2cc4ccc5nc4n2CCCCCC[C@](F)(c2cccc(Cl)n2)C(=O)N[C@@H]5C)n3C2CC2)C[C@@H]1N [Example 876, (8~{S},11~{R})-17-[5-[(3~{S}, 4~{R})-3-amino-4-methoxy-piperidine-1-carbonyl]-1-cyclopropyl-7-fluoro-benzimidazol-2-yl]-8-(6-chloro-2-pyridyl)-8-fluoro-11-methyl-1,10,19-triazatricyclo [10.5.2.0^{15,18}]nonadeca-12(19),13,15(18), 16-tetraen-9-one]",122
7,"C[C@H]1NC(=O)c2nccnc2CCCCCn2c(-c3nc4cc(C(=O)N5C[C@H](N)[C@@H]6CC[C@H]5C6)c(F)c(F)c4n3C3CC3)cc3ccc1nc32 [Example 877, (2~{R})-17-[5-[(1~{S},4~{R}, 5~{})-4-amino-2-azabicyclo [3.2.1]octane-2-carbonyl]-1-cyclopropyl-6,7-difluoro-benzimidazol-2-yl]-2-methyl-3,6,9,16,22-pentazatetracyclo [14.5.2.0^{5,10}.0^{19,23}] tricosa-1(22),5(10),6,8,17,19(23), 20-heptaen-4-one]",40
8,"C[C@H]1NC(=O)c2ccc(Cl)nc2CC[C@H]2C[C@@H]2Cn2c(-c3nc4cc(C(=O)N5C[C@H](N)[C@@H]6CC[C@H]5C6)cc(F)c4n3C3CC3)cc3ccc1nc32 [Example 878, (3~{S},5~{S},16~{R})-22-[5-[(1~{S},4~{R},5~{R})-4-amino-2-azabicyclo[3.2.1]octane-2-carbonyl]-1-cyclopropyl-7-fluoro-benzimidazol-2-yl]-10-chloro-16-methyl-1,9,15,24-tetrazapentacyclo [15.5.2.0^{3,5}.0^ {8,13}.0^{20,23}]tetracosa-8(13),9,11,17(24),18,20(23), 21-heptaen-14-one]",26
9,"C[C@H]1NC(=O)c2ccc(Cl)nc2CC[C@@H]2C[C@H]2Cn2c(-c3nc4cc(C(=O)N5C[C@H](N)[C@@H]6CC[C@H]5C6)cc(F)c4n3C3CC3)cc3ccc1nc32 [Example 879, (3~{R},5~{R},16~{R})-22-[5-[(1~{S},4~{R}, 5~{R})-4-amino-2-azabicyclo[3.2.1]octane-2-carbonyl]-1-cyclopropyl-7-fluoro-benzimidazol-2-yl]-10-chloro-16-methyl-1,9,15,24-tetrazapentacyclo[15.5.2.0^ {3,5}.0^{8,13}.0^{20,23}] tetracosa-8(13),9,11,17(24), 18,20(23),21-heptaen-14-one]",34
10,"C[C@H]1NC(=O)[C@H]2C[C@@H]2CC(F)(F)CCCn2c(-c3nc4cc(C(=O)N5C[C@H](N)[C@@H]6CC[C@H]5C6)cc(F)c4n3C3CC3)cc3ccc1nc32 [Example 880, (2~{R},5~{S},7~{R})-14-[5-[(1~{S},4~{R},5~{R})-4-amino-2-azabicyclo[3.2.1]octane-2-carbonyl]-1-cyclopropyl-7-fluoro-benzimidazol-2-yl]-9,9-difluoro-2-methyl-3,13,19-triazatetracyclo [11.5.2.0^{5,7}.0^{16,20}] icosa-1(19),14,16(20), 17-tetraen-4-one]",39
11,"C[C@H]1NC(=O)[C@@H]2C[C@H]2CC(F)(F)CCCn2c(-c3nc4cc(C(=O)N5C[C@H](N)[C@@H]6CC[C@H]5C6)cc(F)c4n3C3CC3)cc3ccc1nc32 [Example 881, (2~{R},5~{R},7~{S})-14-[5-[(1~{S},4~{R},5~{R})-4-amino-2-azabicyclo [3.2.1]octane-2-carbonyl]-1-cyclopropyl-7-fluoro-benzimidazol-2-yl]-9,9-difluoro-2-methyl-3,13,19-triazatetracyclo [11.5.2.0^{5,7}.0^{16,20}] icosa-1(19),14,16(20), 17-tetraen-4-one]",24
12,"C[C@H]1NC(=O)[C@@H]2C[C@H]2CCCCCn2c(-c3nc4cc(C(=O)N5C[C@H](N)[C@@H]6CC[C@H]5C6)cc(F)c4n3C3CC3)cc3ccc1nc32 [Example 882, (2~{R},5~{R},7~{R})-14-[5-[(1~{S),4~{R},5~{R})-4-amino-2-azabicyclo [3.2.1]octane-2-carbonyl]-1-cyclopropyl-7-fluoro-benzimidazol-2-yl]-2-methyl-3,13,19-triazatetracyclo[11.5.2.0^ {5,7}.0^{16,20}]icosa-1(19),14,16(20),17-tetraen-4-one]",22
13,"COc1cc(C(=O)N2C[C@H](N)[C@@H]3CC[C@H]2C3)cc2nc(-c3cc4ccc5nc4n3CCCCCC[C@](F)(c3ccccn3)C(=O)N[C@@H]5C)n(C)c12 [Example 883, (8~{S},11~{R})-17-[5-[(1~{S},4~{R},5~{R})-4-amino-2-azabicyclo[3.2.1]octane-2-carbonyl]-7-methoxy-1-methyl-benzimidazol-2-yl]-8-fluoro-11-methyl-8-(2-pyridyl)-1,10,19-triazatricyclo[10.5.2.0^ {15,18}]nonadeca-12(19), 13,15(18),16-tetraen-9-one]",18
14,"COc1cc(C(=O)N2C[C@H](N)[C@@H]3CC[C@H]2C3)cc2nc(-c3cc4ccc5nc4n3CCCCCC[C@@](F)(c3ccccn3)C(=O)N[C@@H]5C)n(C)c12 [Example 884, (8~{R},11~{R})-17-[5-[(1~{S),4~{R},5~{R})-4-amino-2-azabicyclo[3.2.1]octane-2-carbonyl]-7-methoxy-1-methyl-benzimidazol-2-yl]-8-fluoro-11-methyl-8-(2-pyridyl)-1,10,19-triazatricyclo[10.5.2.0^ {15,18}]nonadeca-12(19), 13,15(18),16-tetraen-9-one]",24
15,"C[C@H]1NC(=O)[C@@](F)(c2ccccn2)CCCCCCn2c(-c3nc4cc(C(=O)N5C[C@H](N)[C@@H]6CC[C@H]5C6)cc(F)c4n3C3CC3)cc3ccc1nc32 [Example 885, (8~{S},11~{R})-17-[5-[(1~{S},4~{R},5~{R})-4-amino-2-azabicyclo[3.2.1]octane-2-carbonyl]-1-cyclopropyl-7-fluoro-benzimidazol-2-yl]-8-fluoro-11-methyl-8-(2-pyridyl)-1,10,19-triazatricyclo[10.5.2.0^ {15,18}]nonadeca-12(19), 13,15(18),16-tetraen-9-one]",11
16,"C[C@H]1NC(=O)[C@](F)(c2ccccn2)CCCCCCn2c(-c3nc4cc(C(=O)N5C[C@H](N)[C@@H]6CC[C@H]5C6)cc(F)c4n3C3CC3)cc3ccc1nc32 [Example 886, (8~{R},11~{R})-17-[5-[(1~{S),4~{R},5~{R))-4-amino-2-azabicyclo[3.2.1]octane-2-carbonyl]-1-cyclopropyl-7-fluoro-benzimidazol-2-yl]-8-fluoro-11-methyl-8-(2-pyridyl)-1,10,19-triazatricyclo [10.5.2.0^{15,18}]nonadeca-12(19),13,15(18), 16-tetraen-9-one]",29
